By EC50 is commonly meant the concentration at which the effect is half-maximal.

The text below walks through data of ChEMBL document CHEMBL1268895, “Synthesis of exotic polycycles such as cyclooctatrienes and fenestrenes with differential pro-apoptotic activities on human TRAIL-resistant metastatic cell lines” (Bioorg Med Chem Lett, 2010).

The subject of one test is SW-620. Nature of the test: Induction of apoptosis in TRAIL-resistant human SW620 cells assessed as pro-apoptotic cells at 50 uM after 24 hrs by annexin-V staining. It is filed as functional.
For test [1], the system named is THP-1. Kind of test: Induction of apoptosis in TRAIL-resistant human THP1 cells assessed as pro-apoptotic cells at 50 uM after 24 hrs by annexin-V staining. Type of test: functional.
In test [2] the test system is THP-1. Kind of test: Induction of apoptosis in TRAIL-resistant human THP1 cells assessed as inhibition of caspase-8 activity. Type of test: functional.
The subject of test [3] is THP-1. Nature of the test: Induction of apoptosis in TRAIL-resistant human THP1 cells after 24 hrs by annexin-V staining. Type of test: functional, cell-based. The note with it: THP-1, 24 h.

Consider `CCCCC1(CCCC)O[C@H]2C=C(CO)[C@]3(O)[C@@H]4OC(C)(C)O[C@@]45CCC[C@@H]4[C@@H]1[C@@H]2[C@@]453`, for which the values for the Activity in the test with SW-620 and in the test on THP-1 [1] were 5% and 15%, respectively.
As to `CCCCCC1(CCCCC)O[C@H]2C=C(CO)[C@]3(O)[C@@H]4OC(C)(C)O[C@@]45CCC[C@@H]4[C@@H]1[C@@H]2[C@@]453`, the Activity in the test on SW-620 and with THP-1 [1] was 5% in each case.
On to `CC(C)CC1(CC(C)C)O[C@H]2C=C(CO)[C@]3(O)[C@@H]4OC(C)(C)O[C@@]45CCC[C@@H]4[C@@H]1[C@@H]2[C@@]453`, for which the Activity with SW-620 worked out at 13%; in the test with THP-1 [1], 83%.
As for `CC1(C)O[C@@H]2[C@]3(CCC[C@@H]4[C@H]5CO[C@H]6C=C(CO)[C@@]2(O)[C@]43[C@@H]56)O1`, the Activity with SW-620 is given as 4%; with THP-1 [1], 94%.
As for `CC1(C)O[C@H]2C3=C4[C@@H](CCCC[C@@]42O1)[C@H](C(C)(C)O)/C=C\C=C/3CO`, the results for the Activity in the test with SW-620 and in the test with THP-1 [1] were 16% and 2%, respectively.
As for `CC1(C)O[C@H]2C3=C4[C@@H](CCCC[C@@]42O1)[C@H](C1(O)CCCC1)/C=C\C=C/3CO`, the Activity with SW-620 amounted to 22%; in the test on THP-1 [1], 2%.
In the case of `CC1(C)O[C@H]2C3=C4[C@@H](CCCC[C@@]42O1)[C@H](C1(O)CCCCC1)/C=C\C=C/3CO`, the Activity is listed as 17% in the test with SW-620 and 2% in the test on THP-1 [1].
As for `CC(C)CC(O)(CC(C)C)[C@@H]1/C=C\C=C(\CO)C2=C3[C@H]1CCCC[C@@]31OC(C)(C)O[C@@H]21`, the Activity in the test with SW-620 was 68%; in the test on THP-1 [1] it was 36%. Moreover, in the test on THP-1 [2], the “inhibition (INH)” value is on record as 90%.
Take `CCCCCC[C@@H]1/C=C\C=C(\CO)C2=C3[C@H]1CCCC[C@@]31OC(C)(C)O[C@@H]21`: the Activity is reported as 70% in the test on SW-620 and 20% in the test on THP-1 [1]. In addition, in the test on THP-1 [2], the “inhibition (INH)” value is on record as 90%.
As for `CC1(C)O[C@H]2C3=C4[C@@H](CCCC[C@@]42O1)[C@H](CCc1ccccc1)/C=C\C=C/3CO`, the Activity with SW-620 is 23%; in the test with THP-1 [1], 10%.
In the case of `CC1(C)O[C@H]2C3=C4[C@@H](CCC[C@@]42O1)[C@H](C(C)(C)O)/C=C\C=C/3CO`, the Activity amounted to 12% in the test with SW-620 and 2% in the test on THP-1 [1].
`CC1(C)O[C@@H]2C3=C(/C(CO)=C\C=C/[C@@H](C4(O)CCCC4)[C@@H]3c3ccccc3)[C@@H]2O1`: the Activity is recorded as 12% in the test on SW-620 and 3% in the test with THP-1 [1].
In the case of `CC1(C)O[C@@H]2C3=C(/C(CO)=C\C=C/[C@@H](C4(O)CCCCC4)[C@@H]3c3ccccc3)[C@@H]2O1`, the Activity in the test on SW-620 is recorded as 10%; with THP-1 [1], 3%.
For the compound `CCCCCC[C@@H]1/C=C\C=C(\CO)C2=C([C@H]3OC(C)(C)O[C@@H]23)[C@H]1c1ccccc1`, the Activity with SW-620 is listed as 70%; with THP-1 [1], 97%. For the same compound, the 50% effective concentration (EC50) with THP-1 [3] stood at 52.9 µM.
`CC1(C)O[C@@H]2[C@]3(CCC[C@@H]4[C@@H]5[C@H]6[C@H](C=C(CO)[C@@]2(O)[C@]643)OC5(C)C)O1`: the Activity in the test with SW-620 stood at 4%; in the test on THP-1 [1] it was 29%.
Turning to `CC1(C)O[C@@H]2C3=C(/C(CO)=C\C=C/[C@@H](C(C)(C)O)[C@@H]3c3ccccc3)[C@@H]2O1` (relative stereo), the Activity is 15% in the test with SW-620 and 2% in the test on THP-1 [1].
`CC(C)CC(O)(CC(C)C)[C@@H]1/C=C\C=C(\CO)C2=C([C@H]3OC(C)(C)O[C@@H]23)[C@H]1c1ccccc1` (relative stereo): the Activity in the test on SW-620 came to 66%; in the test with THP-1 [1], 97%. For the same compound, in the test with THP-1 [3], the EC50 is 32.4 µM.
For the compound `CC1(C)O[C@@H]2C3=C(/C(CO)=C\C=C/[C@@H](CCc4ccccc4)[C@@H]3c3ccccc3)[C@@H]2O1` (relative stereo), the Activity in the test with SW-620 came out at 58%; in the test with THP-1 [1], 98%. In the test on THP-1 [3], the half-maximal effective concentration (EC50) came to 49.3 µM.
Turning to `CC1=C(O)C(=O)C=C2C1=CC=C1[C@@]2(C)CC[C@@]2(C)[C@@H]3C[C@](C)(C(=O)O)CC[C@]3(C)CC[C@]12C` [CELASTROL], the Activity with SW-620 and in the test with THP-1 [1] was 99% in each case. Besides, the EC50 in the test on THP-1 [3] worked out at 15 µM. Moreover, the “inhibition (INH)” value in the test on THP-1 [2] was found to be 90%.
